Reference: paper PMC10529594, “Strasseriolides display in vitro and in vivo activity against trypanosomal parasites and cause morphological and size defects in Trypanosoma cruzi” (PLOS Neglected Tropical Diseases, 2023)
Several values for one entry are separate records, joined by “and”; a condition that tells them apart may be missing. Identical values can stand only once. Like-named read-outs stand apart in the source and are kept apart here.

How the values were obtained:
T. cruzi trypomastigotes = test: T. cruzi trypomastigote viability / rate of action assay (CellTiter-Glo bioluminescence); format: cell-based, Trypanosoma cruzi; conditions: for EC50: Trypanosoma cruzi; for Hill slope / EC90/EC50: Trypomastigotes
Method: Tulahuen T. cruzi trypomastigotes were recovered 6 days post infection from the supernatant of harvested infected L6 cells cultures after 3 hours at 37°C. 90 μL of parasite culture at a density of 5 × 10^6 cells in RPMI 1640 media were dispensed into 96 Nunc flat bottom assay plates containing 10 μL of each compound.
Parasite viability was assessed upon 24, 48 and 72 hour incubation at 37°C in 5% CO2 by adding 50 μL of CellTiter-Glo viability reagent to white 96-well microplates. After signal stabilization, bioluminescence was read. Compound concentrations ranged from 0.1 μM to 50 μM and final maximal DMSO percentage in the well was 0.05%. Results were normalized to […] control columns in each plate.

[1] = design: method as in PMID 34865639; conditions: murine model, cited from earlier work
T. cruzi epimastigotes = test: Quantification of ATP intracellular levels (CellTiter-Glo); format: cell-based, Trypanosoma cruzi; conditions: for ATP content, individual replicates: single replicates
Method: ATP was determined using the CellTiter-Glo assay. Optimum readout conditions and linearity of the assay were established for T. cruzi epimastigotes by testing different cell densities. The assay was linear up to 100,000 cells (in 90 μl) per well. 50,000 cells (from log phase cultures) per well were dispensed into 96-well white flat bottom microplates containing 10 μl of strasseriolide C at concentrations ranging from 0.4 to 6.25 μM and grown at 28°C for 72 hours with orbital shaking. ATP standard curves were obtained using concentrations ranging from 0.1 to 100 pmol of ATP disodium salt in 90 μl of LIT medium per well. Both samples and standards were assayed in triplicate. 70 μL of CellTiter-Glo solution were added to treated and control parasites and to the standard curve wells, and luminescence detection was recorded after 15 minutes incubation in a Tecan Infinite 200 microplate reader.
To determine if ATP production was affected by these compounds, we measured intracellular levels in T. cruzi epimastigotes. After 72-hour treatment with strasseriolide C at doses ranging from 0.4 to 6.25 μM, 70 μl of Cell-Titer Glo reagent were added with a multichannel pipette. Plates were incubated at 28°C for 10 minutes, after which luminescence was recorded. Luminescence relative light unit (RLU) values were interpolated in the ATP calibration curve (S4A Fig) and pmol of ATP per well were quantified. Considering proliferation inhibition due to strasseriolide C activity, values were normalized with respect to the number of parasites as determined by counting in a Neubauer chamber using phase contrast microscopy.

[2] = 24 h, 0.0976562 µM, untreated 165925
[3] = 24 h, 0.195312 µM, untreated 165925
[4] = 24 h, 0.390625 µM, untreated 165925
[5] = 24 h, 0.78125 µM, untreated 165925
[6] = 24 h, 1.5625 µM, untreated 165925
[7] = 24 h, 3.125 µM, untreated 165925
[8] = 24 h, 6.25 µM, untreated 165925
[9] = 24 h, 12.5 µM, untreated 165925
[10] = 48 h, 0.0976562 µM, untreated 141819
[11] = 48 h, 0.195312 µM, untreated 141819
[12] = 48 h, 0.390625 µM, untreated 141819
[13] = 48 h, 0.78125 µM, untreated 141819
[14] = 48 h, 1.5625 µM, untreated 141819
[15] = 48 h, 3.125 µM, untreated 141819
[16] = 48 h, 6.25 µM, untreated 141819
[17] = 48 h, 12.5 µM, untreated 141819
[18] = 72 h, 0.0976562 µM, untreated 100126
[19] = 72 h, 0.195312 µM, untreated 100126
[20] = 72 h, 0.390625 µM, untreated 100126
[21] = 72 h, 0.78125 µM, untreated 100126
[22] = 72 h, 1.5625 µM, untreated 100126
[23] = 72 h, 3.125 µM, untreated 100126
[24] = 72 h, 6.25 µM, untreated 100126
[25] = 72 h, 12.5 µM, untreated 100126

O=C(Cn1ccnc1[N+](=O)[O-])NCc1ccccc1 [Benznidazole, benznidazole]
RLU Average, trypomastigote viability (T. cruzi trypomastigotes; [2]): 168859 RLU | RLU Average, trypomastigote viability (T. cruzi trypomastigotes; [3]): 163337 RLU | RLU Average, trypomastigote viability (T. cruzi trypomastigotes; [4]): 166320 RLU | RLU Average, trypomastigote viability (T. cruzi trypomastigotes; [5]): 165144 RLU | RLU Average, trypomastigote viability (T. cruzi trypomastigotes; [6]): 164063 RLU | RLU Average, trypomastigote viability (T. cruzi trypomastigotes; [7]): 161383 RLU | RLU Average, trypomastigote viability (T. cruzi trypomastigotes; [8]): 134179 RLU | RLU Average, trypomastigote viability (T. cruzi trypomastigotes; [9]): 39621 RLU | RLU Average, trypomastigote viability (T. cruzi trypomastigotes; 24 h, 25 µM, untreated 165925): 10652 RLU | RLU Average, trypomastigote viability (T. cruzi trypomastigotes; 24 h, 50 µM, untreated 165925): 5606 RLU | RLU Average, trypomastigote viability (T. cruzi trypomastigotes; [10]): 139946 RLU | RLU Average, trypomastigote viability (T. cruzi trypomastigotes; [11]): 134140 RLU | RLU Average, trypomastigote viability (T. cruzi trypomastigotes; [12]): 131074 RLU | RLU Average, trypomastigote viability (T. cruzi trypomastigotes; [13]): 112587 RLU | RLU Average, trypomastigote viability (T. cruzi trypomastigotes; [14]): 83947 RLU | RLU Average, trypomastigote viability (T. cruzi trypomastigotes; [15]): 48357 RLU | RLU Average, trypomastigote viability (T. cruzi trypomastigotes; [16]): 13088 RLU | RLU Average, trypomastigote viability (T. cruzi trypomastigotes; [17]): 3643 RLU | RLU Average, trypomastigote viability (T. cruzi trypomastigotes; 48 h, 25 µM, untreated 141819): 1831 RLU | RLU Average, trypomastigote viability (T. cruzi trypomastigotes; 48 h, 50 µM, untreated 141819): 1028 RLU | RLU Average, trypomastigote viability (T. cruzi trypomastigotes; [18]): 104132 RLU | RLU Average, trypomastigote viability (T. cruzi trypomastigotes; [19]): 98515 RLU | RLU Average, trypomastigote viability (T. cruzi trypomastigotes; [20]): 89377 RLU | RLU Average, trypomastigote viability (T. cruzi trypomastigotes; [21]): 67508 RLU | RLU Average, trypomastigote viability (T. cruzi trypomastigotes; [22]): 34320 RLU | RLU Average, trypomastigote viability (T. cruzi trypomastigotes; [23]): 15352 RLU | RLU Average, trypomastigote viability (T. cruzi trypomastigotes; [24]): 4824 RLU | RLU Average, trypomastigote viability (T. cruzi trypomastigotes; [25]): 2711 RLU | RLU Average, trypomastigote viability (T. cruzi trypomastigotes; 72 h, 25 µM, untreated 100126): 1262 RLU | RLU Average, trypomastigote viability (T. cruzi trypomastigotes; 72 h, 50 µM, untreated 100126): 683 RLU | EC50 (T. cruzi trypomastigotes; 24 h): 8.94 µM | EC50 (T. cruzi trypomastigotes; 48 h): 2.05 µM | EC50 (T. cruzi trypomastigotes; 72 h): 1.15 µM | Hill slope (T. cruzi trypomastigotes; 24 h): 3.93 | Hill slope (T. cruzi trypomastigotes; 48 h): 1.66 | Hill slope (T. cruzi trypomastigotes; 48 h, listed as benznidazole): below 2.1 | Hill slope (T. cruzi trypomastigotes; 72 h): 2.07 | Hill slope (T. cruzi trypomastigotes; 72 h, listed as benznidazole): below 2.1

C/C1=C\[C@H](C)CC[C@@H](O)/C(C)=C/[C@H](C)C[C@@H](C)CC[C@@H]([C@@H](C)C(=O)O)OC(=O)[C@@H](C)C1 [Strasseriolide B, strasseriolide B]
toxicity in vivo ([1]; listed as B): toxic in vivo | toxicity in vivo ([1]; listed as strasseriolide B): toxic

C/C1=C\[C@H](C)C(=O)C[C@@H](O)/C(C)=C/[C@H](C)C[C@@H](C)CC[C@@H]([C@@H](C)C(=O)O)OC(=O)[C@@H](C)C1 [Strasseriolide C, strasseriolide C]
RLU Average, trypomastigote viability (T. cruzi trypomastigotes; [2]): 163790 RLU | RLU Average, trypomastigote viability (T. cruzi trypomastigotes; [3]): 163102 RLU | RLU Average, trypomastigote viability (T. cruzi trypomastigotes; [4]): 158420 RLU | RLU Average, trypomastigote viability (T. cruzi trypomastigotes; [5]): 147331 RLU | RLU Average, trypomastigote viability (T. cruzi trypomastigotes; [6]): 130562 RLU | RLU Average, trypomastigote viability (T. cruzi trypomastigotes; [7]): 103284 RLU | RLU Average, trypomastigote viability (T. cruzi trypomastigotes; [8]): 45263 RLU | RLU Average, trypomastigote viability (T. cruzi trypomastigotes; [9]): 26648 RLU | RLU Average, trypomastigote viability (T. cruzi trypomastigotes; 24 h, 25 µM, untreated 165925): 23620 RLU | RLU Average, trypomastigote viability (T. cruzi trypomastigotes; 24 h, 50 µM, untreated 165925): 23277 RLU | RLU Average, trypomastigote viability (T. cruzi trypomastigotes; [10]): 140243 RLU | RLU Average, trypomastigote viability (T. cruzi trypomastigotes; [11]): 138438 RLU | RLU Average, trypomastigote viability (T. cruzi trypomastigotes; [12]): 137289 RLU | RLU Average, trypomastigote viability (T. cruzi trypomastigotes; [13]): 133179 RLU | RLU Average, trypomastigote viability (T. cruzi trypomastigotes; [14]): 131008 RLU | RLU Average, trypomastigote viability (T. cruzi trypomastigotes; [15]): 112009 RLU | RLU Average, trypomastigote viability (T. cruzi trypomastigotes; [16]): 31326 RLU | RLU Average, trypomastigote viability (T. cruzi trypomastigotes; [17]): 8227 RLU | RLU Average, trypomastigote viability (T. cruzi trypomastigotes; 48 h, 25 µM, untreated 141819): 5426 RLU | RLU Average, trypomastigote viability (T. cruzi trypomastigotes; 48 h, 50 µM, untreated 141819): 4626 RLU | RLU Average, trypomastigote viability (T. cruzi trypomastigotes; [18]): 97547 RLU | RLU Average, trypomastigote viability (T. cruzi trypomastigotes; [19]): 99515 RLU | RLU Average, trypomastigote viability (T. cruzi trypomastigotes; [20]): 99635 RLU | RLU Average, trypomastigote viability (T. cruzi trypomastigotes; [21]): 98868 RLU | RLU Average, trypomastigote viability (T. cruzi trypomastigotes; [22]): 97232 RLU | RLU Average, trypomastigote viability (T. cruzi trypomastigotes; [23]): 91895 RLU | RLU Average, trypomastigote viability (T. cruzi trypomastigotes; [24]): 17556 RLU | RLU Average, trypomastigote viability (T. cruzi trypomastigotes; [25]): 4224 RLU | RLU Average, trypomastigote viability (T. cruzi trypomastigotes; 72 h, 25 µM, untreated 100126): 2493 RLU | RLU Average, trypomastigote viability (T. cruzi trypomastigotes; 72 h, 50 µM, untreated 100126): 1583 RLU | EC50 (T. cruzi trypomastigotes; 24 h): 3.29 µM | EC50 (T. cruzi trypomastigotes; 48 h): 4.45 µM | EC50 (T. cruzi trypomastigotes; 72 h): 4.77 µM | EC90/EC50 (T. cruzi trypomastigotes; 24 h): 3.20 | Hill slope (T. cruzi trypomastigotes; 24 h): 2.11 | EC90/EC50 (T. cruzi trypomastigotes; 48 h): 1.72 | Hill slope (T. cruzi trypomastigotes; 48 h): 4.10 | Hill slope (T. cruzi trypomastigotes; 48 h, listed as C): 4.1 | EC90/EC50 (T. cruzi trypomastigotes; 48 h, listed as strasseriolide C): 1.7 | EC90/EC50 (T. cruzi trypomastigotes; 72 h): 1.42 | Hill slope (T. cruzi trypomastigotes; 72 h): 6.31 | Hill slope (T. cruzi trypomastigotes; 72 h, listed as C): 6.3 | EC90/EC50 (T. cruzi trypomastigotes; 72 h, listed as strasseriolide C): 1.4 | ATP content, Average (pmol ATP/cell) (T. cruzi epimastigotes; 0.390625 µM): 1.759e-5 pmol ATP/cell | ATP content, individual replicates (T. cruzi epimastigotes; 0.390625 µM): 1.792e-5 pmol ATP/cell and 1.833e-5 pmol ATP/cell and 1.6509e-5 pmol ATP/cell | ATP content, Average (pmol ATP/cell) (T. cruzi epimastigotes; 0.78125 µM): 1.732e-5 pmol ATP/cell | ATP content, individual replicates (T. cruzi epimastigotes; 0.78125 µM): 1.756e-5 pmol ATP/cell and 1.79e-5 pmol ATP/cell and 1.649e-5 pmol ATP/cell | ATP content, Average (pmol ATP/cell) (T. cruzi epimastigotes; 1.5625 µM): 1.679e-5 pmol ATP/cell | ATP content, individual replicates (T. cruzi epimastigotes; 1.5625 µM): 1.677e-5 pmol ATP/cell and 1.743e-5 pmol ATP/cell and 1.6178e-5 pmol ATP/cell | ATP content, Average (pmol ATP/cell) (T. cruzi epimastigotes; 3.125 µM): 1.67e-5 pmol ATP/cell | ATP content, individual replicates (T. cruzi epimastigotes; 3.125 µM): 1.693e-5 pmol ATP/cell and 1.736e-5 pmol ATP/cell and 1.58e-5 pmol ATP/cell | ATP content, Average (pmol ATP/cell) (T. cruzi epimastigotes; 6.25 µM): 1.53e-5 pmol ATP/cell | ATP content, individual replicates (T. cruzi epimastigotes; 6.25 µM): 1.501e-5 pmol ATP/cell and 1.61e-5 pmol ATP/cell and 1.48e-5 pmol ATP/cell | cellular ATP pool (T. cruzi epimastigotes; epimastigotes, 72 h, 0.4 to 6.25 μM, normalized to parasite number): discrete reduction
